Test results reported in PMC12340637, “Transport of Small Aliphatic Amines by Polyspecific Solute Carriers: Deciphering Structure–Function Relationships” (ACS Pharmacology & Translational Science, 2025).
Where two headings read alike, the source gives them in different places. Marks after values point to notes of the source that are not given here.

Tests used:
OCT3 (SLC22A3) = biological target: T1, OCT3 (SLC22A3) (Homo sapiens, UniProt O75751); test: Cellular uptake into OCT3-overexpressing HEK293 cells vs EV control cells (HPLC-MS/MS); conditions: for uptake ratio OCT3 (transporter-overexpressing cells over EV control cells): mean (±SD, N): 2 min, HEK293
T1 sequence (O75751 1-556): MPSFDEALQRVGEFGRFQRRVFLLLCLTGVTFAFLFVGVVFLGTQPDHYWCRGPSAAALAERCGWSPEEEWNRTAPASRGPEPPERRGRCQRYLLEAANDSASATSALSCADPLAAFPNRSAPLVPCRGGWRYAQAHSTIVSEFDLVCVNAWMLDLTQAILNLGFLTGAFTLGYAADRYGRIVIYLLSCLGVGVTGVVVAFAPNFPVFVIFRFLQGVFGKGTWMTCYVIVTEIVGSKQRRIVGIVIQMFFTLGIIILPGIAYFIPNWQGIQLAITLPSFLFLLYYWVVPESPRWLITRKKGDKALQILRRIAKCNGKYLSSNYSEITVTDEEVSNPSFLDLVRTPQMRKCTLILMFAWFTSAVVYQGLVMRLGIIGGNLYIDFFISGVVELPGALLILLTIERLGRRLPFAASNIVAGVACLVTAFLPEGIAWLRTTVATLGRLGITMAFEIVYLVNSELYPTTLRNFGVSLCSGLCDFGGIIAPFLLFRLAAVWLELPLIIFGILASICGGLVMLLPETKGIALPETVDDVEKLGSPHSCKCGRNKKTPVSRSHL

MATE1 (SLC47A1) = biological target: T2, MATE1 (SLC47A1) (Homo sapiens, UniProt Q96FL8); test: Cellular uptake into MATE1-overexpressing HEK293 cells vs EV control cells (HPLC-MS/MS); conditions: for uptake ratio MATE1 (transporter-overexpressing cells over EV control cells): mean (±SD, N): 2.5 μM substrate, 1 min, 30 mM NH4Cl preincubation, HEK293
T2 sequence (Q96FL8 1-570): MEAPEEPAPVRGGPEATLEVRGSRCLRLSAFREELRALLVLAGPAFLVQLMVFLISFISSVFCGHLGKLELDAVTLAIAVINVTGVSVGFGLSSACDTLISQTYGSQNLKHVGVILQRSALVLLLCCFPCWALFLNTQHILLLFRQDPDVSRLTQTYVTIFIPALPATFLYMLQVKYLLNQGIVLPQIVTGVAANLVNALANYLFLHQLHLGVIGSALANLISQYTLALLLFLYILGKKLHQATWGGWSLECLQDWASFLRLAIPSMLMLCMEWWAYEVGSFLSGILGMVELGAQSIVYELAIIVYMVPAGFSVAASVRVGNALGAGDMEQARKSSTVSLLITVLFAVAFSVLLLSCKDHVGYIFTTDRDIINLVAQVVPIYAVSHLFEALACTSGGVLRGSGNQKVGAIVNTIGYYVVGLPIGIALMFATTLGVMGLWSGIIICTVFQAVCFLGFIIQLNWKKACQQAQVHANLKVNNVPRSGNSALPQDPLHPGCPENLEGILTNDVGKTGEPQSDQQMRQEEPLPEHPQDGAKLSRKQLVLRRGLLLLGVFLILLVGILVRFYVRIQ

OCT1 (SLC22A1) = biological target: T3, OCT1 (SLC22A1) (Homo sapiens, UniProt O15245); test: Cellular uptake into OCT1-overexpressing HEK293 cells vs EV control cells (HPLC-MS/MS); conditions: for uptake ratio OCT1 (transporter-overexpressing cells over EV control cells): mean (±SD, N): 2 min, HEK293
T3 sequence (O15245 1-554): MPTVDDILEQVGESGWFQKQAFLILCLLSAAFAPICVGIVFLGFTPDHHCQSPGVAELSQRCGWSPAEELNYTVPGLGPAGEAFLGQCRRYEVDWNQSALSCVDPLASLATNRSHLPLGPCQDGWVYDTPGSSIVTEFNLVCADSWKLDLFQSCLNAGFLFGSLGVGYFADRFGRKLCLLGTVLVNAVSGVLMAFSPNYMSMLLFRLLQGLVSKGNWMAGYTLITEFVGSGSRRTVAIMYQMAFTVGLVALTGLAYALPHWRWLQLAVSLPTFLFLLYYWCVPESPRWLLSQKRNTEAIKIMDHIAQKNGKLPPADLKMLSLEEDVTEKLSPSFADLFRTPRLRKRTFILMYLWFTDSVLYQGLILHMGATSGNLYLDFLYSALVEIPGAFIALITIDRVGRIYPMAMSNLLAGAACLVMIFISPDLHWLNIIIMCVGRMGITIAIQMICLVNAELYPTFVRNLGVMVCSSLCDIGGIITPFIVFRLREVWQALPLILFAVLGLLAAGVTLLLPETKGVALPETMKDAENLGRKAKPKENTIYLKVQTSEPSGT

MATE2-K (SLC47A2) = MATE2-K (SLC47A2) (Homo sapiens, UniProt Q86VL8); test: Cellular uptake into MATE2-K-overexpressing HEK293 cells vs EV control cells (HPLC-MS/MS); conditions: for uptake ratio MATE2K (transporter-overexpressing cells over EV control cells): mean (±SD, N): 2.5 μM substrate, 1 min, 30 mM NH4Cl preincubation, HEK293
OCT2 (SLC22A2) = biological target: T4, OCT2 (SLC22A2) (Homo sapiens, UniProt O15244); test: Cellular uptake into OCT2-overexpressing HEK293 cells vs EV control cells (HPLC-MS/MS); conditions: for uptake ratio OCT2 (transporter-overexpressing cells over EV control cells): mean (±SD, N): 2 min, HEK293; for K m (±SEM) / v max (±SEM): OCT2, net uptake, Michaelis–Menten
T4 sequence (O15244 1-555): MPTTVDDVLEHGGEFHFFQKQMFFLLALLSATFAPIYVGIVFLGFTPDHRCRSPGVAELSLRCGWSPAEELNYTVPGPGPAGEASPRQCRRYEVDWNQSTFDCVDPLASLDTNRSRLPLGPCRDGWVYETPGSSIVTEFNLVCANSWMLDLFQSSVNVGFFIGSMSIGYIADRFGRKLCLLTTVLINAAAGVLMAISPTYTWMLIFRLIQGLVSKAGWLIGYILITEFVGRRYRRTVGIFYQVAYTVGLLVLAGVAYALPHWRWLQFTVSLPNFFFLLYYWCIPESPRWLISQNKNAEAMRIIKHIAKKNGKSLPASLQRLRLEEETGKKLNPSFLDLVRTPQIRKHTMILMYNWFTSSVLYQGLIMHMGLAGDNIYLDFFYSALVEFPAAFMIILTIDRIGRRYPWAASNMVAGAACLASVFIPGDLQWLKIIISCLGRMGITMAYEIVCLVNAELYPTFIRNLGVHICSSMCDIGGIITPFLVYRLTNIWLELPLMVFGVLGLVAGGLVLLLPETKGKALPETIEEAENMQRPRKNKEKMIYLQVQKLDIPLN

[1] = uptake ratio ≥2 = notable transport

MATE2-K (SLC47A2), sequence (Q86VL8 1-566 isoform Q86VL8-3): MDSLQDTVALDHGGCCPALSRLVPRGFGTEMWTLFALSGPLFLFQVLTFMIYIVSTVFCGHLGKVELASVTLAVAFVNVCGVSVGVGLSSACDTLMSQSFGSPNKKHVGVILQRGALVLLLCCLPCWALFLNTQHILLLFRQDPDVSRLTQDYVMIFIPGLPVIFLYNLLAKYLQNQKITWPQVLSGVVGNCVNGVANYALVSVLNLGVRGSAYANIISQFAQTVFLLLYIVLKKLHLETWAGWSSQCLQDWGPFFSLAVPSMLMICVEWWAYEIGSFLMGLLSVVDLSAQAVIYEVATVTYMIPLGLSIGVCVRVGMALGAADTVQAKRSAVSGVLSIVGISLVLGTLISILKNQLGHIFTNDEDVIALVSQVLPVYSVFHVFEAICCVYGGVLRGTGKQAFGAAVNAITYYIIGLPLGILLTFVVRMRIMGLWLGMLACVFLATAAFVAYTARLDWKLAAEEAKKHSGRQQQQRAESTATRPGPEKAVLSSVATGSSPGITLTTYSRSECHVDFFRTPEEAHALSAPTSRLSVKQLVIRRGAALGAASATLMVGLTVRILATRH

| Structure (SMILES) | uptake ratio MATE1 (transporter-overexpressing cells over EV control cells): mean (±SD, N) (MATE1 (SLC47A1)) | uptake ratio MATE2K (transporter-overexpressing cells over EV control cells): mean (±SD, N) (MATE2-K (SLC47A2)) | uptake ratio OCT3 (transporter-overexpressing cells over EV control cells): mean (±SD, N) (OCT3 (SLC22A3); 10 μM substrate) | uptake ratio OCT2 (transporter-overexpressing cells over EV control cells): mean (±SD, N) (OCT2 (SLC22A2); 10 μM substrate) | also measured |
| --- | --- | --- | --- | --- | --- |
| CC[C@H](C)[C@H](N)CO [(S)-(+)-isoleucinol] | 1.1 (0.2, 3) | 1.0 (0.1, 3) | – | – | uptake ratio OCT3 (transporter-overexpressing cells over EV control cells): mean (±SD, N) (OCT3 (SLC22A3); 2.5 μM substrate (§)): 0.9 (0.1, 4); uptake ratio OCT1 (transporter-overexpressing cells over EV control cells): mean (±SD, N) (OCT1 (SLC22A1); 2.5 μM substrate (§)): 1.0 (0.1, 4); uptake ratio OCT2 (transporter-overexpressing cells over EV control cells): mean (±SD, N) (OCT2 (SLC22A2); 2.5 μM substrate (§)): 7.6 (1.5, 4) ^b; K m (±SEM) (OCT2 (SLC22A2)): 116 (±59) μM; v max (±SEM) (OCT2 (SLC22A2)): 1303 (±287) pmol/mg protein/min; K m (±SEM) (OCT2 (SLC22A2); listed as isoleucinol): 116 µM |
| NCCN(CCN)CCN [tris(2-aminoethyl)amine] | – | – | – | – | substrate activity at OCT3 (in words) (OCT3 (SLC22A3); [1]): did not show any substrate activity |
| CCN(CC)CCO [2-(diethylamino)ethanol] | 1 (0.13, 3) | 1.4 (0.2, 3) | 1.2 (0.1, 3) | 4.0 (1.5, 3) | v max (±SEM) (OCT2 (SLC22A2)): 794 (±109) pmol/mg protein/min |
| OCCNCCO [diethanolamine] | – | – | – | – | substrate activity at OCT3 (in words) (OCT3 (SLC22A3); [1]): did not show any substrate activity; substrate activity at MATE1 (in words) (MATE1 (SLC47A1)): did not show any substrate activity; substrate activity at OCT1 (in words) (OCT1 (SLC22A1)): did not show any substrate activity; substrate activity at MATE2-K (in words) (MATE2-K (SLC47A2)): did not show any substrate activity; substrate activity at OCT2 (in words) (OCT2 (SLC22A2)): did not show any substrate activity |
| CN(CCCN)CCCN [3,3′-diamino-N-methyldipropylamin] | – | – | – | – | substrate activity at OCT3 (in words) (OCT3 (SLC22A3)): did not show any substrate activity; substrate activity at OCT1 (in words) (OCT1 (SLC22A1)): did not show any substrate activity; substrate activity at MATE2-K (in words) (MATE2-K (SLC47A2)): did not show any substrate activity |
| NCCCCNCCCN [spermidine-(butyl-d8)] | 1.0 (0.4, 3) | 0.8 (0.1, 3) | – | – | – |
| C[C@H](N)CCO [(S)-3-aminobutan-1-ol] | – | – | – | – | stereoselectivity OCT3 (uptake ratio of the more strongly transported enantiomer divided by that of the other) (OCT3 (SLC22A3); label = favoured enantiomer): 1.2-fold for (S) |
| NCCO [ethanolamine^13C2, ethanolamine-^13C2] | 1.2 (0.4, 4) | 1.2 (0.4, 4) | 1.4 (0.5, 4) | 0.4 (0.2, 4) ^b | lower uptake in OCT1-transfected cells compared to EV control cells (OCT1 (SLC22A1); 10 μM): 38%; uptake ratio OCT1 (transporter-overexpressing cells over EV control cells): mean (±SD, N) (OCT1 (SLC22A1); 10 μM substrate): 0.6 (0.3, 4); uptake in OCT1-overexpressing cells as part of the uptake observed in EV control cells (OCT1 (SLC22A1); discussion): approximately one-third; less uptake in OCT2-transfected cells compared to EV control cells (OCT2 (SLC22A2); 10 μM, p = 0.009): 64%; uptake in OCT2-overexpressing cells as part of the uptake observed in EV control cells (OCT2 (SLC22A2); discussion): two-thirds |
| NCCCCO [4-amino-1-butanol] | 1.0 (0.01, 3) | 0.9 (0.3, 3) | – | – | uptake ratio OCT3 (transporter-overexpressing cells over EV control cells): mean (±SD, N) (OCT3 (SLC22A3); 2.5 μM substrate (§)): 1.1 (0.3, 3); uptake ratio OCT1 (transporter-overexpressing cells over EV control cells): mean (±SD, N) (OCT1 (SLC22A1); 2.5 μM substrate (§)): 1.1 (0.3, 3); uptake ratio OCT2 (transporter-overexpressing cells over EV control cells): mean (±SD, N) (OCT2 (SLC22A2); 2.5 μM substrate (§)): 5.4 (1.1, 3) ^a; K m (±SEM) (OCT2 (SLC22A2)): 1243 (±938) μM; v max (±SEM) (OCT2 (SLC22A2)): 3103 (±1458) pmol/mg protein/min |
| CCCCN [butylamine] | 1.0 (0.1, 4) | 1.2 (0.3, 4) | 1.5 (1.0, 5) | 6.4 (2.0, 5) ^b | – |
| CC(C)CN [isobutylamine] | 0.9 (0.2, 4) | 1.2 (0.3, 4) | 0.7 (0.2, 4) ^a | 3.4 (1.2, 4) ^a | uptake ratio OCT1 (transporter-overexpressing cells over EV control cells): mean (±SD, N) (OCT1 (SLC22A1); 10 μM substrate): 1.1 (0.2, 4) |
| CCCCCCN [hexylamine] | 0.8 (0.2, 4) | 1.2 (0.6, 5) | 0.6 (0.2, 4) ^a | 1.6 (0.4, 4) | uptake ratio OCT1 (transporter-overexpressing cells over EV control cells): mean (±SD, N) (OCT1 (SLC22A1); 10 μM substrate): 1.8 (1.4, 5) |
| CC(C)(C)N [tert-butylamine] | 1.3 (0.3, 3) | 1.0 (0.2, 3) | 1.3 (0.5, 3) | 3.8 (1.6, 4) ^a | – |
| CC(C)N [isopropylamine] | 1.4 (0.2, 3) | – | 1.0 (0.2, 3) | 5.3 (1.7, 3) ^a | uptake ratio OCT1 (transporter-overexpressing cells over EV control cells): mean (±SD, N) (OCT1 (SLC22A1); 10 μM substrate): 1.3 (0.2, 3) |
